ChEMBL document CHEMBL1131403, “Selective inhibition of the chymotrypsin-like activity of the 20S proteasome by 5-methoxy-1-indanone dipeptide benzamides” (Bioorg Med Chem Lett, 1998)
Where a SMILES comes first, the peptide text is derived from it. [ ]: non-standard residue; d: D form. Nle = CCCC[C@H](N)C(=O)O

Experiments:
Proteasome [1] = assay: Inhibition of chymotrypsin-like activity of 20S proteasome; assay type: subcellular
Calpain 1 [2] = target: T1, Calpain 1 (Homo sapiens, UniProt P04632+P07384); assay: Inhibitory activity against calpain I; no inhibition was observed; assay type: protein-complex assay
T1 sequence (P04632 whole entry): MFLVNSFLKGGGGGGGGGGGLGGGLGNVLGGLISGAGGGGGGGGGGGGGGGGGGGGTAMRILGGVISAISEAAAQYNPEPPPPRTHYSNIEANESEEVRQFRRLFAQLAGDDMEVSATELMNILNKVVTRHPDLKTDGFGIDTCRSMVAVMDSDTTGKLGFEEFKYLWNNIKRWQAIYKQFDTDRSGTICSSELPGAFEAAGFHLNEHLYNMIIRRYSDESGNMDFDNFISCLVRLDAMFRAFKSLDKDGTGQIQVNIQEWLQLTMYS
T1 sequence (P07384 whole entry): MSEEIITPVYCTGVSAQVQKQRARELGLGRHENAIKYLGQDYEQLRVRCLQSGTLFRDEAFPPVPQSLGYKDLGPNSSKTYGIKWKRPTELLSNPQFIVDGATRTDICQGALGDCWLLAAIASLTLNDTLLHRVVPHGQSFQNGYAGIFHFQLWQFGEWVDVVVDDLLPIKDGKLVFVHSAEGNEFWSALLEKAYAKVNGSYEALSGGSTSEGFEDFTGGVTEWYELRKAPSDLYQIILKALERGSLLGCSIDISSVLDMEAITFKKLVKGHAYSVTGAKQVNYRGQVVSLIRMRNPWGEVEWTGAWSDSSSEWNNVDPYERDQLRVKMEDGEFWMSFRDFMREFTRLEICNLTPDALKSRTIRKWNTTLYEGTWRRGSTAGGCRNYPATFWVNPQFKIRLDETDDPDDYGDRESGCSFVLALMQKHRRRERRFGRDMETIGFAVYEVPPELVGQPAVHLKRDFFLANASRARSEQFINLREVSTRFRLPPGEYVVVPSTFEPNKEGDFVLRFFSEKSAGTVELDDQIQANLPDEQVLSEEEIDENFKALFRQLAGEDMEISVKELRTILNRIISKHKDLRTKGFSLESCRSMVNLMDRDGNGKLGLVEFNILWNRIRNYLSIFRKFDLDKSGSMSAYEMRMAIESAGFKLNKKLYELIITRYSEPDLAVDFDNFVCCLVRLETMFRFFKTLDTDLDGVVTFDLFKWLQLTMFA

Proteasome [3] = assay: Inhibition of chymotrypsin-like activity of 20S proteasome; value ranges from 10-20 uM; assay type: subcellular
RAW = assay: Antiproliferative activity against murine macrophage (RAW) cell line; assay type: functional, cell-based; settings: Mus musculus
Calpain 1 [4] = target: Calpain 1 (Homo sapiens, UniProt P07384); assay: Inhibitory activity against Calpain I; assay type: protein-complex assay

| SMILES | IC50 (Proteasome [1]) | IC50 (Calpain 1 [2]) | IC50 (Proteasome [3]) | IC50 (Calpain 1 [4]) | IC50 (RAW) |
| --- | --- | --- | --- | --- | --- |
| COc1ccc2c(c1)C(CC(=O)N[C@H](CC(C)C)C(=O)N[C@H](CC(C)C)C(=O)NCC(N)=O)CC2=O (some centres undefined) | > 20 µM | No inhibition |  |  |  |
| COc1ccc2c(c1)C(CC(=O)N[C@@H](CC(C)C)C(=O)N[C@H](CC(C)C)C(=O)NCC1CCCCC1)CC2=O (some centres undefined) | > 18 µM | No inhibition |  |  |  |
| COc1ccc2c(c1)C(CC(=O)N[C@H](CC(C)C)C(=O)N[C@@H](CC(C)C)C(=O)NCC(N)=O)CC2=O (some centres undefined) |  | No inhibition | 10 µM |  |  |
| COc1ccc2c(c1)C(CC(=O)N[C@@H](CC(C)C)C(=O)N[C@H](CC(C)C)C(=O)NC1CCc3ccccc31)CC2=O (some centres undefined) | 0.89 µM | No inhibition |  |  |  |
| COc1ccc2c(c1)C(CC(=O)N[C@@H](CC(C)C)C(=O)N[C@H](CC(C)C)C(=O)Nc1ccccc1)CC2=O (some centres undefined) | > 19 µM | No inhibition |  |  |  |
| COc1ccc2c(c1)C(CC(=O)N[C@@H](CC(C)C)C(=O)N[C@H](CC(C)C)C(N)=O)CC2=O (some centres undefined) | > 20 µM | No inhibition |  |  |  |
| COc1ccc2c(c1)C(CC(=O)N[C@@H](CC(C)C)C(=O)N[C@H](CC(C)C)C(=O)NCCO)CC2=O (some centres undefined) | > 20 µM | No inhibition |  |  |  |
| COc1ccc2c(c1)C(CC(=O)N[C@@H](CC(C)C)C(=O)N[C@H](CC(C)C)C(=O)N1CCOCC1)CC2=O (some centres undefined) | > 20 µM | No inhibition |  |  |  |
| COc1ccc2c(c1)C(CC(=O)N[C@@H](CC(C)C)C(=O)N[C@H](CC(C)C)C(=O)N1CCCCC1)CC2=O (some centres undefined) | > 20 µM | No inhibition |  |  |  |
| CCCC[C@@H](C=O)NC(=O)[C@H](CC(C)C)NC(=O)[C@H](CC(C)C)NC(C)=O (Ac-Leu-Leu-[Nle]-aldehyde) | 0.15 µM |  |  | 7 µM |  |
| COc1ccc2c(c1)C(CC(=O)N[C@@H](CC(C)C)C(=O)N[C@H](CC(C)C)C(=O)NCCc1ccccc1)CC2=O (some centres undefined) | > 18 µM | No inhibition |  |  |  |
| COc1ccc2c(c1)C(CC(=O)N[C@@H](CC(C)C)C(=O)N[C@H](CC(C)C)C(=O)NCc1ccc([N+](=O)[O-])cc1)CC2=O (some centres undefined) | > 17 µM | No inhibition |  |  |  |
| COc1ccc2c(c1)C(CC(=O)N[C@@H](CC(C)C)C(=O)N[C@H](CC(C)C)C(=O)NCc1c(F)c(F)c(F)c(F)c1F)CC2=O (some centres undefined) | > 16 µM | No inhibition |  |  |  |
| COc1ccc2c(c1)C(CC(=O)N[C@@H](CC(C)C)C(=O)N[C@H](CC(C)C)C(=O)NCc1occ3ccccc13)CC2=O (some centres undefined) | 8.7 µM | No inhibition |  |  |  |
| COc1ccc2c(c1)C(CC(=O)N[C@@H](CC(C)C)C(=O)N[C@H](CC(C)C)C(=O)NCc1ccc(OCc3ccccc3)cc1)CC2=O (some centres undefined) | 16 µM | No inhibition |  |  |  |
| COc1ccc2c(c1)C(CC(=O)N[C@@H](CC(C)C)C(=O)N[C@H](CC(C)C)C(=O)NCc1ccccc1-c1ccccc1)CC2=O (some centres undefined) | > 16 µM | No inhibition |  |  |  |

Now from value to compound, other results behind:

| IC50 (Proteasome [1]) | IC50 (Calpain 1 [2]) | IC50 (Proteasome [3]) | IC50 (Calpain 1 [4]) | SMILES | IC50 (RAW) |
| --- | --- | --- | --- | --- | --- |
| 0.71 µM | No inhibition |  |  | COc1ccc(CNC(=O)[C@@H](CC(C)C)NC(=O)[C@H](CC(C)C)NC(=O)CC2CC(=O)c3ccc(OC)cc32)cc1 (some centres undefined) |  |
| > 20 µM | No inhibition |  |  | COc1ccc2c(c1)C(CC(=O)N[C@@H](C(=O)N[C@H](CC(C)C)C(N)=O)C(C)C)CC2=O (some centres undefined) |  |
| > 18 µM | No inhibition |  |  | COc1ccc2c(c1)C(CC(=O)N[C@@H](CC(C)C)C(=O)N[C@H](CC(C)C)C(=O)N(C)Cc1ccccc1)CC2=O (some centres undefined) |  |
| > 20 µM | No inhibition |  |  | COc1ccc2c(c1)C(CC(=O)N[C@@H](CC(C)C)C(=O)N[C@@H](CC(C)C)C(=O)NCC(N)=O)CC2=O (some centres undefined) |  |
| > 18 µM | No inhibition |  |  | COc1ccc2c(c1)C(CC(=O)N[C@@H](CC(C)C)C(=O)N[C@H](CC(C)C)C(=O)NC1C3CC4CC(C3)CC1C4)CC2=O (some centres undefined) |  |
| > 20 µM | No inhibition |  |  | COc1ccc2c(c1)C(CC(=O)N[C@@H](CC(C)C)C(=O)N[C@H](CC(C)C)C(=O)N1CCCC1)CC2=O (some centres undefined) |  |
| > 20 µM | No inhibition |  |  | COc1ccc2c(c1)C(CC(=O)N[C@H](CC(C)C)C(=O)N[C@@H](CC(C)C)C(N)=O)CC2=O (some centres undefined) |  |
| > 20 µM | No inhibition |  |  | CCC[C@H](NC(=O)CC1CC(=O)c2ccc(OC)cc21)C(=O)N[C@H](CC(C)C)C(=O)NCC(N)=O (some centres undefined) |  |
| > 20 µM | No inhibition |  |  | COc1ccc2c(c1)C(CC(=O)N[C@H](Cc1ccccc1)C(=O)N[C@H](CC(C)C)C(N)=O)CC2=O (some centres undefined) |  |
| 0.93 µM | No inhibition |  |  | COc1ccc2c(c1)C(CC(=O)N[C@@H](CC(C)C)C(=O)N[C@H](CC(C)C)C(=O)NCc1ccccc1)CC2=O (some centres undefined) | 7 µM |
| 0.2 µM | No inhibition |  |  | COc1ccc2c(c1)C(CC(=O)N[C@@H](CC(C)C)C(=O)N[C@H](CC(C)C)C(=O)NCC(N)=O)CC2=O (some centres undefined) |  |
| 0.14 µM | No inhibition |  |  | COc1ccc2c(c1)C(CC(=O)N[C@@H](CC(C)C)C(=O)N[C@H](CC(C)C)C(=O)NCc1c(F)cccc1F)CC2=O (some centres undefined) | 8 µM |
| > 20 µM | No inhibition |  |  | COc1ccc2c(c1)C(CC(=O)N[C@@H](CC(C)C)C(=O)N[C@@H](CC(C)C)C(N)=O)CC2=O (some centres undefined) |  |
| 1.9 µM | No inhibition |  |  | COc1ccc2c(c1)C(CC(=O)N[C@@H](CC(C)C)C(=O)N[C@H](CC(C)C)C(=O)NCc1ccco1)CC2=O (some centres undefined) |  |
| > 20 µM | No inhibition |  |  | COc1ccc2c(c1)C(CC(=O)N[C@@H](CC(C)C)C(=O)N[C@H](CC(C)C)C(=O)NC(C)C)CC2=O (some centres undefined) |  |
| 2.2 µM | No inhibition |  |  | COc1ccc2c(c1)C(CC(=O)N[C@H](CC(C)C)C(=O)N[C@H](CC(C)C)C(N)=O)CC2=O (some centres undefined) |  |
| > 20 µM | No inhibition |  |  | COc1ccc2c(c1)C(CC(=O)N[C@H](CC(C)C)C(=O)N[C@@H](C(N)=O)C(C)C)CC2=O (some centres undefined) |  |
| 0.49 µM | No inhibition |  |  | COc1ccc2c(c1)C(CC(=O)N[C@@H](CC(C)C)C(=O)N[C@H](CC(C)C)C(=O)NCc1ccc(-c3ccccc3)cc1)CC2=O (some centres undefined) |  |
| > 16 µM | No inhibition |  |  | COc1ccc2c(c1)C(CC(=O)N[C@@H](CC(C)C)C(=O)N[C@H](CC(C)C)C(=O)NC(c1ccccc1)c1ccccc1)CC2=O (some centres undefined) |  |
| 0.34 µM | No inhibition |  |  | COc1ccc2c(c1)C(CC(=O)N[C@@H](CC(C)C)C(=O)N[C@H](CC(C)C)C(=O)NCc1ccc3c(c1)OCO3)CC2=O (some centres undefined) |  |
